From ChEMBL document CHEMBL5715954, “Silencing c-Myc translation as a therapeutic strategy through targeting PI3Kδ and CK1ε in hematological malignancies” (Blood, 2017)

Key:
Design in all cases: scale not given: the % may be the effect or the level left
[1] = target: CDK17/Cyclin-Y (Homo sapiens) (UniProt Q00537+Q8ND76); assay: Inhibition of human CDK17/cyclin Y assessed as enzyme activity at 1 uM using myelin basic protein as substrate preincubated for 20 mins followed by [gamma-33P]-ATP addition and measured after 120 mins by radiometric Hot-SpotSM Kinase assay relative to control; type: protein-complex assay
[2] = target: Tyrosine-protein kinase Yes (Homo sapiens) (UniProt P07947); assay: Inhibition of human YES assessed as enzyme activity at 1 uM using poly[Glu:Tyr] (4:1) as substrate preincubated for 20 mins followed by [gamma-33P]-ATP addition and measured after 120 mins by radiometric Hot-SpotSM Kinase assay relative to control
[3] = target: TRAF2 and NCK-interacting protein kinase (Homo sapiens) (UniProt Q9UKE5); assay: Inhibition of human TNIK assessed as enzyme activity at 1 uM using RLGRDKYKTLRQIRQ as substrate preincubated for 20 mins followed by [gamma-33P]-ATP addition and measured after 120 mins by radiometric Hot-SpotSM Kinase assay relative to control
[4] = target: Mitogen-activated protein kinase 3 (Homo sapiens) (UniProt P27361); assay: Inhibition of human ERK1 assessed as enzyme activity at 1 uM using myelin basic protein as substrate preincubated for 20 mins followed by [gamma-33P]-ATP addition and measured after 120 mins by radiometric Hot-SpotSM Kinase assay relative to control
[5] = target: T1, Serine/threonine-protein kinase BRSK2 (Homo sapiens) (UniProt Q8IWQ3); assay: Inhibition of human BRSK2 assessed as enzyme activity at 1 uM using KKLNRTLSFAEPG as substrate preincubated for 20 mins followed by [gamma-33P]-ATP addition and measured after 120 mins by radiometric Hot-SpotSM Kinase assay relative to control
T1 sequence (whole entry): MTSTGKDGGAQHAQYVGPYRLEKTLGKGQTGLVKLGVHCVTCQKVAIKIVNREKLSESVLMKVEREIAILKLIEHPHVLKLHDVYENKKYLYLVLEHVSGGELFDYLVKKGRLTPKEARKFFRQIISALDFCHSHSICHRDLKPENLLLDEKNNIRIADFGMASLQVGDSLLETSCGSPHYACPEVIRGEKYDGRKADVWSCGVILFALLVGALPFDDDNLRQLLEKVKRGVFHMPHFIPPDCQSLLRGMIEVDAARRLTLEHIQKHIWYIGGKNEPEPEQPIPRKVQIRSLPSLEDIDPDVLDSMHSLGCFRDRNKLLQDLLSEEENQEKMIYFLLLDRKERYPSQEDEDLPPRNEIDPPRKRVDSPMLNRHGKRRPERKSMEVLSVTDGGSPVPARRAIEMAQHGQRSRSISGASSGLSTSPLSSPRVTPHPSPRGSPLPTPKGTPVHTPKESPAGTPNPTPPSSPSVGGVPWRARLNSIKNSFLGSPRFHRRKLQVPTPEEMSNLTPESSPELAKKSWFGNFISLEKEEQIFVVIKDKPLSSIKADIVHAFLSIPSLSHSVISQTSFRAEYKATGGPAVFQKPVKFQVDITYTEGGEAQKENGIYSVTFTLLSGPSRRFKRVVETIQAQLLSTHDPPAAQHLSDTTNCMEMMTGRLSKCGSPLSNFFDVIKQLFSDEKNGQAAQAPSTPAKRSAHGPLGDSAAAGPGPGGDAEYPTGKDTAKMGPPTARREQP

[6] = target: T2, Serine/threonine-protein kinase Chk1 (Homo sapiens) (UniProt O14757); assay: Inhibition of human CHK1 assessed as enzyme activity at 1 uM using KKKVSRSGLYRSPSMPENLNRPR as substrate preincubated for 20 mins followed by [gamma-33P]-ATP addition and measured after 120 mins by radiometric Hot-SpotSM Kinase assay relative to control
T2 sequence (whole entry): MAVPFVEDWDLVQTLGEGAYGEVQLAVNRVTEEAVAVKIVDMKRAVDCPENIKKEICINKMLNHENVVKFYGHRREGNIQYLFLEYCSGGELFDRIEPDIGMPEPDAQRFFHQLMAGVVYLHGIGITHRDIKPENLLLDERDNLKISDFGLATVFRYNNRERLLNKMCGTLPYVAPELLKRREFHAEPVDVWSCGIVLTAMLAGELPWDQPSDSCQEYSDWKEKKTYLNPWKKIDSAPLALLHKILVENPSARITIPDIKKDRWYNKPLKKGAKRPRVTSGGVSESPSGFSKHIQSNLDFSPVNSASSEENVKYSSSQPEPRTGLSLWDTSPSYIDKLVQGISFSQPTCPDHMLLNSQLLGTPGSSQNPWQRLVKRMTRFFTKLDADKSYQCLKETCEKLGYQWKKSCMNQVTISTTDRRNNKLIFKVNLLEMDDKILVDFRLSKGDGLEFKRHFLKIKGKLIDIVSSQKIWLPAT

[7] = target: Cyclin-dependent kinase 2/cyclin E1 (Homo sapiens) (UniProt P24864+P24941); assay: Inhibition of human CDK2/cyclin E assessed as enzyme activity at 1 uM using RB Protein as substrate preincubated for 20 mins followed by [gamma-33P]-ATP addition and measured after 120 mins by radiometric Hot-SpotSM Kinase assay relative to control; type: protein-complex assay
[8] = target: Protein-tyrosine kinase 2-beta (Homo sapiens) (UniProt Q14289); assay: Inhibition of human PYK2 assessed as enzyme activity at 1 uM using poly[Glu:Tyr] (4:1) as substrate preincubated for 20 mins followed by [gamma-33P]-ATP addition and measured after 120 mins by radiometric Hot-SpotSM Kinase assay relative to control
[9] = target: T3, TGF-beta receptor type-1 (Homo sapiens) (UniProt P36897); assay: Inhibition of human ALK5 assessed as enzyme activity at 1 uM using casein as substrate preincubated for 20 mins followed by [gamma-33P]-ATP addition and measured after 120 mins by radiometric Hot-SpotSM Kinase assay relative to control
T3 sequence (whole entry): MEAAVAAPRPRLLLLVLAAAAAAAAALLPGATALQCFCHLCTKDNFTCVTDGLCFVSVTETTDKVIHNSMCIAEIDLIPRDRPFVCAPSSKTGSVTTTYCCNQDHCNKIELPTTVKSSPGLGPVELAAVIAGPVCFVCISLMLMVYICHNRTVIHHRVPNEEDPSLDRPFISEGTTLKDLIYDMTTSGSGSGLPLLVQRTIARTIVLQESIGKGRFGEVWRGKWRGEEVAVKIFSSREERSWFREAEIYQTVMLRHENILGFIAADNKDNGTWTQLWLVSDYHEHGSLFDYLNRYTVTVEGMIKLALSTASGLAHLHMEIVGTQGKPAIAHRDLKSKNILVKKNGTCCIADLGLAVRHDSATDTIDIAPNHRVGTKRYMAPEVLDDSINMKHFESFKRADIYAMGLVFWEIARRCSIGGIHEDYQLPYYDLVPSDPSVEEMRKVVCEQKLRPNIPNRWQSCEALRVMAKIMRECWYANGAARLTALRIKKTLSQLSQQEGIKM

[10] = target: Mitogen-activated protein kinase kinase kinase kinase 1 (Homo sapiens) (UniProt Q92918); assay: Inhibition of human HPK1 assessed as enzyme activity at 1 uM using myelin basic protein as substrate preincubated for 20 mins followed by [gamma-33P]-ATP addition and measured after 120 mins by radiometric Hot-SpotSM Kinase assay relative to control
Chain of Mitogen-activated protein kinase kinase kinase kinase 1 (Homo sapiens) (Q92918 whole entry, looked up): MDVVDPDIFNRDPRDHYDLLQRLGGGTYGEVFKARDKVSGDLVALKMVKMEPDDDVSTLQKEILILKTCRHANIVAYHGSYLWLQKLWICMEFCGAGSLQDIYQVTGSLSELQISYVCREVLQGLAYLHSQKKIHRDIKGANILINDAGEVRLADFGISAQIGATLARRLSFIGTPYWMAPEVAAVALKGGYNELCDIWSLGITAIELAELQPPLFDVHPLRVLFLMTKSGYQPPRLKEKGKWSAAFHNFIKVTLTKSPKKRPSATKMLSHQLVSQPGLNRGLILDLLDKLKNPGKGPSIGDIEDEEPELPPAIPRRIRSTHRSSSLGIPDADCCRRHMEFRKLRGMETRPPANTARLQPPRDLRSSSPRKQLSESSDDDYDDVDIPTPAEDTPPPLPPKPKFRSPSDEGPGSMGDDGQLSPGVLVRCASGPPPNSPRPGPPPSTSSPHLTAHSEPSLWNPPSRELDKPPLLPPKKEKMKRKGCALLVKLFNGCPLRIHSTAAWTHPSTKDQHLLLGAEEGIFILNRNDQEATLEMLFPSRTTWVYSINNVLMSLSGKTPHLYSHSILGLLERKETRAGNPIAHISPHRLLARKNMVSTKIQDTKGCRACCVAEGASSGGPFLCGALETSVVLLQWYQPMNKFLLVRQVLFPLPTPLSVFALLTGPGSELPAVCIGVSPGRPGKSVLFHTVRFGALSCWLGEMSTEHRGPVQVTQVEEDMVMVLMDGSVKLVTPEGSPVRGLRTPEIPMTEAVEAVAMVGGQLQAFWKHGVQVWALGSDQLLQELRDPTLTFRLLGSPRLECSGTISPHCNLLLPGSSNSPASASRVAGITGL

Chain of Tyrosine-protein kinase Yes (Homo sapiens) (P07947 2-543 limits assumed): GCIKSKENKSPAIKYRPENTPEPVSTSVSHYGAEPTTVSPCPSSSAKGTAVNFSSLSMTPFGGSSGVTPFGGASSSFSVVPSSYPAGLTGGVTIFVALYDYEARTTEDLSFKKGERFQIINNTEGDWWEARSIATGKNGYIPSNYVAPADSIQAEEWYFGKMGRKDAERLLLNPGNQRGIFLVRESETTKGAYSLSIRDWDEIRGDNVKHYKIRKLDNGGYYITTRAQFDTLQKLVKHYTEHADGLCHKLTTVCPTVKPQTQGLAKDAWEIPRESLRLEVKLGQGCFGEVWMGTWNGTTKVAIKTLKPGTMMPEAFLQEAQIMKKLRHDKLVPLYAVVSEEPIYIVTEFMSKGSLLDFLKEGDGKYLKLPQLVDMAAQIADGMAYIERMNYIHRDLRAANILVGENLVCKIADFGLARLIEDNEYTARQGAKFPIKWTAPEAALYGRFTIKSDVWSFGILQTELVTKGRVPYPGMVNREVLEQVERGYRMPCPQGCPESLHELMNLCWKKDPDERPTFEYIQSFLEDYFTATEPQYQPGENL
Chain of Mitogen-activated protein kinase 3 (Homo sapiens) (P27361 whole entry): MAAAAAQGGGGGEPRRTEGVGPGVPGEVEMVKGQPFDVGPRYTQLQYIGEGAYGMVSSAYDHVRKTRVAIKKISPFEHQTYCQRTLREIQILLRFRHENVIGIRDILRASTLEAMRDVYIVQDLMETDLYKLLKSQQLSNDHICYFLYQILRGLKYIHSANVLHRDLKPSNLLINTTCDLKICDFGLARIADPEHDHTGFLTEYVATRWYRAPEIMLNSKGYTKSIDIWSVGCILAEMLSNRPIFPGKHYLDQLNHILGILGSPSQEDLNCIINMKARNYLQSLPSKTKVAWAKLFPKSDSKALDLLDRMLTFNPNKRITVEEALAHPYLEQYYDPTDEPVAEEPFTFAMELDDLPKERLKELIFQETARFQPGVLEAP
Chain of TRAF2 and NCK-interacting protein kinase (Homo sapiens) (Q9UKE5 whole entry, looked up): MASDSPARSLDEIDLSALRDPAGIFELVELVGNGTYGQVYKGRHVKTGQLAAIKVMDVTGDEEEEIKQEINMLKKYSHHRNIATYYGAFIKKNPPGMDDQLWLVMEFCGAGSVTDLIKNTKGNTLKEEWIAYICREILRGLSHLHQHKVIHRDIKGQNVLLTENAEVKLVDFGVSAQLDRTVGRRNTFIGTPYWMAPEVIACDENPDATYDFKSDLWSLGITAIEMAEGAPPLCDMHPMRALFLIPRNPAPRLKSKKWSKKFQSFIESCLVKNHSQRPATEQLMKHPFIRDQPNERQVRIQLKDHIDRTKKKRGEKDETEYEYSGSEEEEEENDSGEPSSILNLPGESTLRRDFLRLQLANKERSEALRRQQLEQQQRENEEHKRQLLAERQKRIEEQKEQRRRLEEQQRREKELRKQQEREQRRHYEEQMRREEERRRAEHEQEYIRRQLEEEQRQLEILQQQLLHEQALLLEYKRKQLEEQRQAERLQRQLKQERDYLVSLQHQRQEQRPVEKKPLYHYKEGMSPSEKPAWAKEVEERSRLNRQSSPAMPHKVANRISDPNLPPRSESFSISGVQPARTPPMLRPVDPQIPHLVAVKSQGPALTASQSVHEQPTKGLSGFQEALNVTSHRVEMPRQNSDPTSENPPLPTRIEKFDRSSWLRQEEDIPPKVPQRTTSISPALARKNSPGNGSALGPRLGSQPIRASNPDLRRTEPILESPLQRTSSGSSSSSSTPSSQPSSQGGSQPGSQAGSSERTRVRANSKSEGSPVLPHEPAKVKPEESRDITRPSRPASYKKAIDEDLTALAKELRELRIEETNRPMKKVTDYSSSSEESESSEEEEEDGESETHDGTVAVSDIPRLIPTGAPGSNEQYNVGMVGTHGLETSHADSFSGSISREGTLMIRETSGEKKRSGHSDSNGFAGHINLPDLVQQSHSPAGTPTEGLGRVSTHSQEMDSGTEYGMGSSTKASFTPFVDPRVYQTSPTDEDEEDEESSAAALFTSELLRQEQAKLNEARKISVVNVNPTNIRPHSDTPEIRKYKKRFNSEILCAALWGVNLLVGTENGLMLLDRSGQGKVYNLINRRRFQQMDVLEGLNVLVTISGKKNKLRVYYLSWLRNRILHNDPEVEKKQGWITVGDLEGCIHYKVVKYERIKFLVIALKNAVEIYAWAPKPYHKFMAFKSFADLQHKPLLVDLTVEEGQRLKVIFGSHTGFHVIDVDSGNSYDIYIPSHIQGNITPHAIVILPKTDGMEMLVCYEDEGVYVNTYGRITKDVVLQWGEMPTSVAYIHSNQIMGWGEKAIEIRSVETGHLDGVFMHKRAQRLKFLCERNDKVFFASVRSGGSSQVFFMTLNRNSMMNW
Chain of CDK17/Cyclin-Y (Homo sapiens) (Q00537 whole entry): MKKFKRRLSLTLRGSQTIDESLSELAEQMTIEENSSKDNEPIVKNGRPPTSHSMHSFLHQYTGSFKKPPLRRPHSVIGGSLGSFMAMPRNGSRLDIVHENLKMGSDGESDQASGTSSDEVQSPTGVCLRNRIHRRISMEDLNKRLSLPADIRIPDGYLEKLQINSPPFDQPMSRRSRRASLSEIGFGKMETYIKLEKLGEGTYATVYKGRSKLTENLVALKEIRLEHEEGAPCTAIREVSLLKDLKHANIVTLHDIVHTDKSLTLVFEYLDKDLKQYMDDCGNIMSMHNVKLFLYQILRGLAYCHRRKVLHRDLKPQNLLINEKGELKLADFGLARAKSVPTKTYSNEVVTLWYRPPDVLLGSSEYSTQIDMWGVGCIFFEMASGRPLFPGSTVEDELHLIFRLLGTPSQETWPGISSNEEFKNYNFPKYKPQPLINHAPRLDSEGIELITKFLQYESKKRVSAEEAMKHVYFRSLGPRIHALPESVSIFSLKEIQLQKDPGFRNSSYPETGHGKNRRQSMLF
Chain of CDK17/Cyclin-Y (Homo sapiens) (Q8ND76 2-341 partner limits assumed): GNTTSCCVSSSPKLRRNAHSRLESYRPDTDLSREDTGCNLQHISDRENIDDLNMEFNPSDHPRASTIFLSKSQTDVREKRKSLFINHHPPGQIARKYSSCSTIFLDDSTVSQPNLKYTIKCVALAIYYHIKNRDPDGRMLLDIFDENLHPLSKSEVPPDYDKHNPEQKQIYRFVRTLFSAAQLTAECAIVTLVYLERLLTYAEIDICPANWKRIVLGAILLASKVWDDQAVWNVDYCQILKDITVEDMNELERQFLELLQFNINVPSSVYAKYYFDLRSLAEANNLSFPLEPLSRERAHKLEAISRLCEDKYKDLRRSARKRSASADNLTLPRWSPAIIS
Chain of Protein-tyrosine kinase 2-beta (Homo sapiens) (Q14289 whole entry, looked up): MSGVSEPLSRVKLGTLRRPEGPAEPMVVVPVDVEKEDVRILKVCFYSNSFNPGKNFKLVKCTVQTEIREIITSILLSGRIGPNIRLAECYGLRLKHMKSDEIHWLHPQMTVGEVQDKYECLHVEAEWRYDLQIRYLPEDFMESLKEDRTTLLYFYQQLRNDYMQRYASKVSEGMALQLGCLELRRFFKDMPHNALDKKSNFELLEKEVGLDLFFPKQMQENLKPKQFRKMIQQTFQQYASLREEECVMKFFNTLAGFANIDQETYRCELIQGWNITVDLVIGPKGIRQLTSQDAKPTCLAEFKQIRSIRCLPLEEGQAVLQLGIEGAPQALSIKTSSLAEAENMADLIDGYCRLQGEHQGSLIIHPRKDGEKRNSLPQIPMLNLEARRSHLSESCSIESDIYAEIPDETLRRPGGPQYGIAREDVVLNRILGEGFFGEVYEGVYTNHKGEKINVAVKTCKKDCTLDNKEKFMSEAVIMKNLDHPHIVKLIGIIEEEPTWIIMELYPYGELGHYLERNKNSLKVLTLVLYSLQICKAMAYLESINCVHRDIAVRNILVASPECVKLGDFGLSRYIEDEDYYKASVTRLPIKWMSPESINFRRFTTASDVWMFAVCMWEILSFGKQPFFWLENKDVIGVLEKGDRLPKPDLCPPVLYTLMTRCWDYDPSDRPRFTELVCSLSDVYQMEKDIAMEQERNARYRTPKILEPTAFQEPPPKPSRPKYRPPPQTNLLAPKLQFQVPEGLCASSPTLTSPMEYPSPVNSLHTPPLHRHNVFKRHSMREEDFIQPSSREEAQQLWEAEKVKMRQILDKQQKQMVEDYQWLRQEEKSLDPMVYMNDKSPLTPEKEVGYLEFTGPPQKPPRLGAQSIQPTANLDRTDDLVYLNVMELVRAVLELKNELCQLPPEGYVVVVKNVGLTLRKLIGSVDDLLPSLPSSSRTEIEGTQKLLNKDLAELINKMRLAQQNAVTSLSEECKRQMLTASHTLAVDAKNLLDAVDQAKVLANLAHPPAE

Question: With `CC[C@H](Nc1ncnc2[nH]cnc12)c1nc2cccc(F)c2c(=O)n1-c1ccccc1` as the compound, how does the Activity [1] read?
Answer: 96.5%

Question: What about the Activity [2] of the same compound?
Answer: 93.1%

Question: What about the Activity [3] of the same compound?
Answer: 94.5%

Question: And the Activity [4]?
Answer: 96%

Question: And the Activity [5]?
Answer: 98.9%

Question: What about the Activity [6] of the same compound?
Answer: 93.2%

Question: And the Activity [7]?
Answer: 96.2%

Question: What about the Activity [8] of the same compound?
Answer: 101%

Question: What about the Activity [9] of the same compound?
Answer: 108%

Question: And the Activity [10]?
Answer: 98%

Question: With `C[C@H](Nc1ncnc2nc[nH]c12)c1cc2cccc(Cl)c2c(=O)n1-c1ccccc1` as the compound, how does the Activity [1] read?
Answer: 97.2%

Question: And the Activity [2]?
Answer: 94.2%

Question: And the Activity [3]?
Answer: 99.7%

Question: What about the Activity [4] of the same compound?
Answer: 95.9%

Question: What about the Activity [5] of the same compound?
Answer: 95.1%

Question: And the Activity [6]?
Answer: 94.1%

Question: And the Activity [7]?
Answer: 95.6%

Question: And the Activity [8]?
Answer: 99.5%

Question: What about the Activity [9] of the same compound?
Answer: 108%

Question: And the Activity [10]?
Answer: 104%

Question: How did the Activity [1] turn out when `CC(C)Oc1ccc(-c2nn([C@@H](C)c3oc4ccc(F)cc4c(=O)c3-c3cccc(F)c3)c3ncnc(N)c23)cc1F` [UMBRALISIB] was run?
Answer: 100%

Question: What about the Activity [2] of the same compound?
Answer: 93.5%

Question: And the Activity [3]?
Answer: 97.7%

Question: And the Activity [4]?
Answer: 95.8%

Question: What about the Activity [5] of the same compound?
Answer: 99.1%

Question: What about the Activity [6] of the same compound?
Answer: 95%

Question: What about the Activity [7] of the same compound?
Answer: 99%

Question: And the Activity [8]?
Answer: 102%

Question: And the Activity [9]?
Answer: 109%

Question: And the Activity [10]?
Answer: 105%
